The term melting point denotes the temperature, or range, at which the solid turns liquid. `O=C1Cc2cc(-c3ccc(-c4ccccc4)cc3)ccc2Oc2cc(O)cc(O)c21` [Example 79]: the melting point was > 250 °C (dec.).
For `CCCCc1ccc2c(c1)CC(=O)c1c(O)cc(O)cc1S2` [Example 53], the melting point lay within 106.9 to 108.1 °C.
With `O=C1Cc2cc(-c3cc4ccccc4o3)ccc2Oc2cc(O)cc(O)c21` [Example 94], the melting point was in the range of 268.4 to 268.5 °C.
Take `Nc1cccc(-c2ccc3c(c2)CC(=O)c2c(O)cc(O)cc2O3)c1` [Example 59]: the melting point is > 300 °C (dec.).
Molecule `O=C(Cc1ccc2c(c1)CC(=O)c1c(O)cc(O)cc1O2)C1=CCCCC1` [Example 66] showed a melting point of 173.8 to 175.8 °C.
Take `Oc1cc(O)c2c(c1)Sc1ccc(-c3cccs3)cc1CC2` [Example 126]: the melting point is 207.3 to 208.1 °C.
Regarding `Nc1cccc(-c2ccc3c(c2)Oc2cc(O)cc(O)c2C(=O)C3)c1` [Example 74], the melting point fell in the range of 228.3 to 230 °C.
Take `CCC1C(=O)c2cc(O)c(O)cc2Sc2ccc(-c3cc4ccccc4s3)cc21` (stereo not drawn) [Example 172]: the melting point was 251.4 to 255.5 °C (dec.).
`O=C1Cc2ccc(-c3cccc(C(F)(F)F)c3)cc2Sc2cc(O)cc(O)c21` [Example 91] showed a melting point of 225.3 to 226.5 °C.
Then `CCCCCCc1ccc2c(c1)CCc1c(O)cc(O)cc1O2`, with 135.6 to 137.6 °C; and `O=C1Cc2cc(-c3cccc([N+](=O)[O-])c3)ccc2Oc2cc(O)cc(O)c21` [Example 56], with 244.3 to 250.7 °C; and `Oc1cc(O)c2c(c1)Oc1cc(-c3cccc(Cl)c3)ccc1CC2` [Example 118], with 137.1 to 143.2 °C.
Then `O=C1Cc2cc(-c3cccc(Cl)c3)ccc2Oc2cc(O)cc(O)c21` [Example 61], with 208.9 to 213.6 °C; and `Cc1ccc(-c2ccc3c(c2)Sc2cc(O)cc(O)c2C(=O)C3)cc1` [Example 86], with 228.4 to 235.2 °C; and `O=C1Cc2ccc(Br)cc2Sc2cc(O)cc(O)c21` [Example 9, 3-Bromo-7,9-dihydroxy-10,11-dihydrodibenzo[b,f]thiepin-10-one], with > 200 °C (dec.).
`CC1C(=O)c2ccc(O)cc2Sc2ccccc21` (stereo not drawn) [Example 41]: the melting point was 190 to 191.6 °C.
For `O=C1Cc2ccc(-c3cccc(Cl)c3)cc2Sc2cc(O)cc(O)c21` [Example 90], the melting point lay within 180.3 to 191.6 °C.
With `CCc1ccc2c(c1)CC(=O)c1c(O)cc(O)cc1S2` [Example 48], the melting point fell in the range of 179.1 to 180.1 °C.
Then `CSc1ccc2c(c1)Sc1cc(O)c(O)cc1C(=O)C2` [Example 23], with 232 to 236.9 °C; and `O=C1Cc2ccc(-c3cccs3)cc2Oc2cc(O)cc(O)c21` [Example 5, 3-(2-Thiophene)-7,9-dihydroxy-10,11-dihydrodibenz[b,f]oxepin-10-one], with 227.6 to 228.1 °C; and `O=C(c1ccc2c(c1)CCc1c(O)cc(O)cc1S2)C1CCC1` [Example 134], with 141.2 to 141.7 °C.
`CC(=O)c1cc(-c2ccc3c(c2)CC(=O)c2c(O)cc(O)cc2O3)ccc1C` [Example 67] displayed a melting point of 228.4 to 230.8 °C.
`CCC1C(=O)c2cc(O)c(O)cc2Sc2cc(-c3ccc(OC(F)(F)F)cc3)ccc21` (stereo not drawn) [Example 169] returned a melting point of 216.8 to 219.1 °C.
Molecule `O=C1Cc2cc(-c3cccs3)ccc2Oc2cc(O)cc(O)c21` [Example 58] came in with a melting point of 199.9 to 201 °C.
For the molecule `CCC1C(=O)c2cc(O)c(O)cc2Sc2ccc(-c3cc4ccccc4o3)cc21` (stereo not drawn) [Example 161], the melting point lay within 277.4 to 279.2 °C.
`O=C1Cc2cc(-c3ccccc3)ccc2Oc2cc(O)cc(O)c21` [Example 54] had a melting point of 170.3 to 172 °C.
Molecule `CSc1ccc2c(c1)Sc1cc(O)cc(O)c1C(=O)C2` [Example 19] came in with a melting point of 182.3 to 184.4 °C.
`Nc1cccc(-c2ccc3c(c2)CC(=O)c2c(O)cc(O)cc2S3)c1` [Example 83]: the melting point was > 200 °C (dec.).
For the molecule `O=C1Cc2cc(Br)ccc2Sc2cc(O)c(O)cc21` [Example 22], the melting point was 285.7 °C (dec.).
Turning to `O=C1Cc2ccc(-c3cccs3)cc2Sc2cc(O)cc(O)c21` [Example 81], the melting point fell in the range of 214.3 to 215.3 °C.
Regarding `CSc1ccc2c(c1)C=Cc1c(O)cc(O)cc1S2` [Example 28], the melting point fell in the range of 182.9 to 184.4 °C.
`O=C1Cc2ccc(-c3cccc(C(F)(F)F)c3)cc2Oc2cc(O)cc(O)c21` [Example 73] yielded a melting point of 183 to 184.7 °C.
The molecule `Oc1cc(O)c2c(c1)Oc1cc(-c3cccc(C(F)(F)F)c3)ccc1CC2` [Example 117] returned a melting point of 150.2 to 152.6 °C.
As for `Cc1ccccc1-c1ccc2c(c1)CC(=O)c1c(O)cc(O)cc1O2` [Example 62], the melting point was 91.8 to 94.8 °C.
For the molecule `Oc1cc(O)c2c(c1)Oc1ccc(CCc3ccccc3)cc1CC2` [Example 113], the melting point is 151.8 to 152.7 °C.
To `Oc1cc2c(c(O)c1O)CCc1cc(-c3ccccc3)ccc1O2` [Example 125] belongs 175.1 to 178.3 °C.
In turn, `O=C1Cc2cc(-c3ccccc3)ccc2Oc2cc(O)c(O)c(O)c21` [Example 88] had a melting point of 124 to 125.8 °C.
For the molecule `O=C1Cc2ccc(-c3cccc(Cl)c3)cc2Oc2cc(O)cc(O)c21` [Example 69], the melting point is 199.9 to 201.4 °C.
Then `CCC1C(=O)c2cc(O)c(O)cc2Sc2cc(-c3ccc(-c4ccccc4)cc3)ccc21` (stereo not drawn) [Example 171], with greater than 300 °C; and `CCC1C(=O)c2cc(O)c(O)cc2Sc2cc(-c3ccco3)ccc21` (stereo not drawn) [Example 153], with 242.9 to 248.4 °C.
To `CCCC(=O)c1ccc2c(c1)CCc1c(O)cc(O)cc1O2` [Example 128] belongs 157.6 to 157.9 °C; to `Cc1ccc(-c2ccc3c(c2)CC(=O)c2c(O)cc(O)cc2O3)cc1` [Example 60], 174 to 175 °C.
Then `CCCCC(=O)c1ccc2c(c1)CCc1c(O)cc(O)cc1S2` [Example 131], with 155.1 to 158.7 °C; and `CCCc1ccc2c(c1)CC(=O)c1c(O)cc(O)cc1O2` [Example 47], with 121 to 123 °C.
`CCCCC(=O)c1ccc2c(c1)CCc1c(O)cc(O)cc1O2` [Example 130] came in with a melting point of 119.8 to 121.7 °C.
Consider `C[Si](C)(C)CCc1ccc2c(c1)CCc1c(O)cc(O)cc1O2`, for which the melting point was in the range of 125.2 to 126.9 °C.
Take `CCC1C(=O)c2cc(O)c(O)cc2Sc2cc(-c3ccccc3C)ccc21` (stereo not drawn) [Example 158]: the melting point was 179.2 to 181.1 °C.
`CSc1ccc2c(c1)CCc1c(O)cc(O)cc1S2` [Example 2, 8-Methylthio-10,11-dihydrodibenzo[b,f]thiepin-1,3-diol] returned a melting point of 161.6 to 163.9 °C.
Molecule `CCC1C(=O)c2cc(O)c(O)cc2Sc2cc(-c3ccc(C)cc3)ccc21` (stereo not drawn) [Example 160] had a melting point of 271.9 to 273.3 °C.
`O=C1Cc2cc(-c3cccc([N+](=O)[O-])c3)ccc2Sc2cc(O)cc(O)c21` [Example 80]: the melting point is > 250 °C (dec.).
As to `O=C1Cc2cc(Br)ccc2Sc2cc(O)cc(O)c21` [Example 13], the melting point lay within 236.4 to 237.3 °C.

For the origin of these results see patent publication US6700013B2, “Tricyclic fused heterocycle compounds, process for preparing the same and use thereof” (Nippon Suisan Kaisha, Ltd., priority 1999, dated 2004).
